The test system of one data set is Huh-7. The data set can be described thus: Antiproliferative activity against human Huh-7 cells assessed as inhibition of cell proliferation incubated for 72 hrs by MTT assay. Type of data set: functional, cell-based. To be noted: Huh-7, 72 h.
For a further data set, the system named is HepG2. The data set can be described thus: Antiproliferative activity against human HepG2 cells assessed as inhibition of cell proliferation incubated for 72 hrs by MTT assay. The data set is classed as functional, cell-based. The following applies: HepG2, 72 h. (Formazan colour is commonly taken as a measure of viable cells.)
The next data set concerns SK-HEP1. Nature of the data set: Antiproliferative activity against human SK-HEP1 cells assessed as inhibition of cell proliferation incubated for 72 hrs by MTT assay. Type of data set: functional, cell-based. To be noted: SK-HEP1, 72 h.
Data set [1] is described as follows: Aqueous solubility of the compound […] measured after 72 hrs in shaking by HPLC analysis. The data set is classed as physicochemical.
The test system of another data set is SMMC-7721. Nature of the data set: Antiproliferative activity against human SMMC-7721 cells assessed as inhibition of cell proliferation incubated for 72 hrs by MTT assay. Type of data set: functional, cell-based. To be noted: SMMC-7721, 72 h.
Data set [2] in a line: Antiproliferative activity against human Doxorubicin-resistant SMMC-7721 cell assessed as inhibition of cell proliferation incubated for 72 hrs by MTT assay. The data set is classed as functional, cell-based. To be noted: SMMC-7721, 72 h.

≈ marks a conversion by molar mass, not a printed value. A value given as a limit tells only on which side of the number the result lay.

As usually defined, the IC50 is the concentration at which inhibition is half-maximal. One may read the solubility (thermodynamic) as solubility found after equilibrating the solid with the medium. `CN(C)C(=O)Oc1ccc2[nH]c3c(c2c1)CCN1C(=O)c2cc(F)cc(F)c2N(c2cccc(F)c2)C31` (stereo not given): the concentration for half-maximal inhibition (IC50) in the data set with Huh-7, in the data set with HepG2 and with SK-HEP1 was more than 1620 nM throughout. In data set [1], this compound showed a thermodynamic solubility at 72 h of 3.1 µg/mL (≈ 6.12 µM).
In the case of `COCCCOc1ccc2[nH]c3c(c2c1)CCN1C(=O)c2cc(F)cc(F)c2N(c2cccc(F)c2)C31` (stereo not given), the IC50 in the data set on Huh-7, in the data set with HepG2 and in the data set on SK-HEP1 was more than 1620 nM each time. The solubility (thermodynamic) at 72 h in data set [1] stood at 71.4 µg/mL (≈ 141 µM).
Turning to `CC(C)(O)COc1ccc2[nH]c3c(c2c1)CCN1C(=O)c2cc(F)cc(F)c2N(c2cccc(F)c2)C31` (stereo not given), the half-maximal inhibitory concentration (IC50) stood at 530 nM in the data set with Huh-7, 1240 nM in the data set on HepG2 and 920 nM in the data set with SK-HEP1. The solubility (thermodynamic) at 72 h in data set [1] came out at 2.5 µg/mL (≈ 4.93 µM).
In the case of `CN(C)CC(=O)Oc1ccc2[nH]c3c(c2c1)CCN1C(=O)c2cc(F)cc(F)c2N(c2cccc(F)c2)C31` (stereo not given), the results for the half-maximal inhibitory concentration (IC50) in the data set on Huh-7, in the data set with HepG2 and in the data set with SK-HEP1 were 40 nM, 100 nM and 30 nM, respectively. In addition, the solubility (thermodynamic) at 72 h in data set [1] came out at 8.7 µg/mL (≈ 16.7 µM).
In the case of `O=C1c2cc(F)cc(F)c2N(c2cccc(F)c2)C2c3[nH]c4ccc(OCCCN5CCCC5)cc4c3CCN12` (stereo not given), the IC50 with Huh-7, in the data set with HepG2 and in the data set on SK-HEP1 was more than 1620 nM in each case. This compound returned a solubility (thermodynamic) at 72 h in data set [1] of 61.1 µg/mL (≈ 112 µM).
For `CCN(CC)C(=O)Oc1ccc2[nH]c3c(c2c1)CCN1C(=O)c2cc(F)cc(F)c2N(c2cccc(F)c2)C31` (stereo not given), the IC50 in the data set with Huh-7, in the data set on HepG2 and in the data set with SK-HEP1 was more than 1620 nM in each case. Also, in data set [1], the solubility (thermodynamic) at 72 h was determined as 5.5 µg/mL (≈ 10.3 µM).
Turning to `CN1CCN(CCOc2ccc3[nH]c4c(c3c2)CCN2C(=O)c3cc(F)cc(F)c3N(c3cccc(F)c3)C42)CC1` (stereo not given), the IC50 in the data set with Huh-7, with HepG2 and in the data set with SK-HEP1 was more than 1620 nM throughout. Further, in data set [1], the solubility (thermodynamic) at 72 h stood at 103 µg/mL (≈ 183 µM).
For the compound `CC[C@@]1(O)C(=O)OCc2c1cc1n(c2=O)Cc2cc3c(CN(C)C)c(O)ccc3nc2-1` [TOPOTECAN], the IC50 came to 3750 nM in the data set on Huh-7, 1040 nM in the data set on HepG2 and 1510 nM in the data set on SK-HEP1.
For the compound `O=C(Oc1ccc2[nH]c3c(c2c1)CCN1C(=O)c2cc(F)cc(F)c2N(c2cccc(F)c2)C31)N1CCNCC1` (stereo not given), the IC50 in the data set on Huh-7, in the data set with HepG2 and in the data set on SK-HEP1 was more than 1620 nM in each case. For the same compound, the solubility (thermodynamic) at 72 h in data set [1] came out at 1.5 µg/mL (≈ 2.74 µM).
Regarding `O=C(CO)Oc1ccc2[nH]c3c(c2c1)CCN1C(=O)c2cc(F)cc(F)c2N(c2cccc(F)c2)C31` (stereo not given), the IC50 came to 70 nM in the data set on Huh-7, 180 nM in the data set on HepG2 and 40 nM in the data set on SK-HEP1. The thermodynamic solubility at 72 h in data set [1] came to 0.7 µg/mL (≈ 1.42 µM).
For `COCCOc1ccc2[nH]c3c(c2c1)CCN1C(=O)c2cc(F)cc(F)c2N(c2cccc(F)c2)C31` (stereo not given), in that order: 1530 nM, 1280 nM, 1580 nM and 1.3 µg/mL (≈ 2.63 µM).
With `O=C(O)CCC(=O)Oc1ccc2[nH]c3c(c2c1)CCN1C(=O)c2cc(F)cc(F)c2N(c2cccc(F)c2)C31` (stereo not given), the half-maximal inhibitory concentration (IC50) turned out to be 20 nM with Huh-7, 70 nM in the data set with HepG2 and 90 nM in the data set with SK-HEP1. Besides, in data set [1], the solubility (thermodynamic) at 72 h is 6.1 µg/mL (≈ 11.4 µM).
With `O=C1c2cc(F)cc(F)c2N(c2cccc(F)c2)C2c3[nH]c4ccc(OCCN5CCCCC5)cc4c3CCN12` (stereo not given), the IC50 in the data set on Huh-7, in the data set on HepG2 and in the data set with SK-HEP1 was more than 1620 nM in each case. For the same compound, the solubility (thermodynamic) at 72 h in data set [1] was determined as 34.3 µg/mL (≈ 62.8 µM).
`O=C1c2cc(F)cc(F)c2N(c2cccc(F)c2)C2c3[nH]c4ccc(OCCN5CCNCC5)cc4c3CCN12` (stereo not given): the 50% inhibitory concentration (IC50) with Huh-7, in the data set with HepG2 and in the data set on SK-HEP1 was more than 1620 nM throughout. In data set [1], this compound returned a thermodynamic solubility at 72 h of 50.5 µg/mL (≈ 92.2 µM).
For the compound `CNC(=O)c1cc(Oc2ccc(NC(=O)Nc3ccc(Cl)c(C(F)(F)F)c3)cc2)ccn1` [SORAFENIB], the concentration for half-maximal inhibition (IC50) in the data set on SMMC-7721 is 3460 nM; in data set [2], 5120 nM.
`CN(C)CCC(=O)Oc1ccc2[nH]c3c(c2c1)CCN1C(=O)c2cc(F)cc(F)c2N(c2cccc(F)c2)C31` (stereo not given): the IC50 with Huh-7, in the data set on HepG2 and in the data set with SK-HEP1 was 40 nM throughout. For the same compound, in data set [1], the solubility (thermodynamic) at 72 h was determined as 11.8 µg/mL (≈ 22.1 µM).
On to `O=C(Oc1ccc2[nH]c3c(c2c1)CCN1C(=O)c2cc(F)cc(F)c2N(c2cccc(F)c2)C31)N1CCC(N2CCCCC2)CC1` (stereo not given), for which the IC50 in the data set on Huh-7, in the data set with HepG2 and in the data set with SK-HEP1 was more than 1620 nM in each case. The compound further registered a thermodynamic solubility at 72 h in data set [1] of 34.5 µg/mL (≈ 54.8 µM).
In the case of `O=C(O)COc1ccc2[nH]c3c(c2c1)CCN1C(=O)c2cc(F)cc(F)c2N(c2cccc(F)c2)C31` (stereo not given), the half-maximal inhibitory concentration (IC50) in the data set with Huh-7, in the data set with HepG2 and in the data set on SK-HEP1 was more than 1620 nM each time. Further, in data set [1], the solubility (thermodynamic) at 72 h worked out at 72.5 µg/mL (≈ 147 µM).
`O=C1c2cc(F)cc(F)c2N(c2cccc(F)c2)C2c3[nH]c4ccc(OCCCN5CCOCC5)cc4c3CCN12` (stereo not given): the 50% inhibitory concentration (IC50) in the data set on Huh-7, in the data set on HepG2 and in the data set on SK-HEP1 was more than 1620 nM throughout. The compound further had a solubility (thermodynamic) at 72 h in data set [1] of 11.6 µg/mL (≈ 20.6 µM).
For `O=C(CCN1CCCC1)Oc1ccc2[nH]c3c(c2c1)CCN1C(=O)c2cc(F)cc(F)c2N(c2cccc(F)c2)C31` (stereo not given), the IC50 in the data set on Huh-7 came out at 40 nM; in the data set on HepG2, 80 nM; in the data set with SK-HEP1, 30 nM. For the same compound, the solubility (thermodynamic) at 72 h in data set [1] stood at 10.1 µg/mL (≈ 18 µM).
In the case of `O=C1c2cc(F)cc(F)c2N(c2cccc(F)c2)C2c3[nH]c4ccc(OCCN5CCOCC5)cc4c3CCN12` (stereo not given), the half-maximal inhibitory concentration (IC50) in the data set on Huh-7, in the data set with HepG2 and in the data set with SK-HEP1 was more than 1620 nM in each case. This compound also displayed a solubility (thermodynamic) at 72 h in data set [1] of 9.5 µg/mL (≈ 17.3 µM).
`COCC(=O)Oc1ccc2[nH]c3c(c2c1)CCN1C(=O)c2cc(F)cc(F)c2N(c2cccc(F)c2)C31` (stereo not given): the half-inhibitory concentration (IC50) in the data set on Huh-7 is 40 nM; in the data set on HepG2, 90 nM; in the data set with SK-HEP1, 40 nM. For the same compound, in data set [1], the solubility (thermodynamic) at 72 h was determined as 3 µg/mL (≈ 5.91 µM).
Regarding `CC(O)COc1ccc2[nH]c3c(c2c1)CCN1C(=O)c2cc(F)cc(F)c2N(c2cccc(F)c2)C31` (stereo not given), the IC50 came to 190 nM in the data set with Huh-7, 510 nM with HepG2 and 730 nM in the data set with SK-HEP1. Moreover, the solubility (thermodynamic) at 72 h in data set [1] came to 12.2 µg/mL (≈ 24.7 µM).
Consider `COP(=O)(OC)Oc1ccc2[nH]c3c(c2c1)CCN1C(=O)c2cc(F)cc(F)c2N(c2cccc(F)c2)C31` (stereo not given), for which the IC50 in the data set on Huh-7, in the data set on HepG2 and in the data set on SK-HEP1 was more than 1620 nM in each case. The same compound yielded a thermodynamic solubility at 72 h in data set [1] of 1.9 µg/mL (≈ 3.5 µM).
Turning to `O=C1c2cc(F)cc(F)c2N(c2cccc(F)c2)C2c3[nH]c4ccc(OCCO)cc4c3CCN12` (stereo not given), the figures for the half-maximal inhibitory concentration (IC50) in the data set on Huh-7, in the data set on HepG2 and in the data set with SK-HEP1 were 120 nM, 280 nM and 200 nM, respectively. The same compound came in with a thermodynamic solubility at 72 h in data set [1] of 9.5 µg/mL (≈ 19.8 µM).
For `CN(C)CCOc1ccc2[nH]c3c(c2c1)CCN1C(=O)c2cc(F)cc(F)c2N(c2cccc(F)c2)C31` (stereo not given), in that order: 430 nM, 800 nM, 1380 nM and 53 µg/mL (≈ 105 µM).
Regarding `O=C1c2cc(F)cc(F)c2N(c2cccc(F)c2)C2c3[nH]c4ccc(OCCCN5CCCCC5)cc4c3CCN12` (stereo not given), the IC50 with Huh-7, in the data set with HepG2 and with SK-HEP1 was more than 1620 nM in each case. Further, in data set [1], the solubility (thermodynamic) at 72 h worked out at 100 µg/mL (≈ 179 µM).

These data come from ChEMBL document CHEMBL6071160, “Identification of a novel 10-hydroxyevodiamine prodrug as a potent topoisomerase inhibitor with improved aqueous solubility for treatment of hepatocellular carcinoma” (Eur J Med Chem, 2024).
